In patent US9428568B2, “Compositions and methods for modulating cell-cell fusion via intermediate-conductance calcium-activated potassium channels” (BOEHRINGER INGELHEIM INTERNATIONAL GMBH, priority 2008, dated 2016):
Entries after “also recorded” stand apart in the source; their conditions may differ. Read-outs that look alike come from different tables or passages of the source.

Key:
[1] = test system: bone marrow-derived macrophages from WT mice; assay: Osteoclastogenesis / cell fusion of bone marrow-derived macrophages of WT mice under M-CSF+RANKL (TRAP+ osteoclast-like cells); format: cell-based, mouse
Description: Bone marrow- and spleen-derived mouse osteoclasts. These cells were generated from four- to twelve-week-old sk4^+/+ and sk4^−/− mice as previously described (Cui et al. (2007) Proc. Natl. Acad. Sci. USA 104:14436-14441; Epub 2007 Aug. 28). Bone marrow and spleen cells were isolated, mechanically dissociated and cultured at a density of 1.33×10^6 cells per cm^2 in MEM containing 10% heat-inactivated fetal bovine serum (HyClone, Logan, Utah), 100 units/ml penicillin-streptomycin (Gibco Invitrogen, Carlsbad, Calif.), 1% MEM vitamins, 1% glutamine, and 30 ng/ml M-CSF (PeproTech, Inc. Rocky Hill, N.J.). RANKL (PeproTech, Inc.) was added at a concentration of 40 ng/ml. Media was changed every three days. To assess the formation of an actin ring, a landmark of osteoclast activity, cells were cultured in the presence of M-CSF (20 ng/ml) and RANKL (40 ng/ml) on glass slides for 8 days, fixed and reacted with phalloidin-Alexa 568 and Topro-3. To further assess resorptive activity, cells were cultured on Osteologic slides that are coated with artificial bone made of calcium-phosphate crystals. After 8 days, cells were lysed and the substrates stained with silver nitrate according to the supplier's instructions. The resorbed areas on slides were recorded by histomorphometry.

human PBMCs = assay: Human osteoclastogenesis / cell fusion of PBMCs under M-CSF+RANKL stimulation (TRAP+ osteoclast-like cells); format: cell-based; conditions: for IC50: PBMC, read-out: inhibition of cell fusion, IC50; for osteoclast number / osteoclast surface area: dose-dependent
Description: Human osteoclasts. These cells were generated using normal peripheral blood blood (Allcells, Emeryville, Calif.). Peripheral blood monocytes were isolated using Ficoll-Paque and cultured at a concentration of 3×10^6 cells/ml in MEME supplemented with 10% FCS, recombinant human M-CSF (25 ng/ml) and recombinant human RANKL (40 ng/ml). The medium was changed once a week.

SK4 channels = SK4 channels (Homo sapiens, UniProt O15554); conditions: cited from earlier work
[2] = general statement in the definition of SK4 channels

Row | Compound | IC50 (human PBMCs; FIGS. 10A-B) [nM] | osteoclast number (human PBMCs) | osteoclast surface area (human PBMCs) | block of SK4 channels (SK4 channels; [2]) | also measured
1 | NC(=O)C(c1ccccc1)(c1ccc(F)cc1)c1ccc(F)cc1 [ICA-17043, 2,2-bis(4-fluorophenyl)-2-phenylacetamide] | 300 | decreased | decreased | – | osteoclastogenesis (surface area of TRAP+ osteoclast-like cells, POC relative to no compound control) ([1]; bone marrow-derived macrophages of WT (SK4+/+) mice, FIGS. 7A-B, five replicates): attenuated osteoclastogenesis in a dose dependent manner; also recorded: prevent osteoclastogenesis in a dose-dependent manner; concentration at which cell fusion was significantly inhibited (TRAP-stained images) ([1]; bone marrow-derived macrophages of WT mice, FIG. 7C): 0.36 µM; human osteoclastogenesis in vitro (surface area of TRAP+ osteoclast-like cells, POC relative to no compound control) (human PBMCs; FIGS. 10A-B, four replicates): inhibited human osteoclastogenesis in vitro in a dose-dependent manner; also recorded: prevent osteoclastogenesis in a dose-dependent manner
2 | Clc1ccccc1C(c1ccccc1)(c1ccccc1)n1ccnc1 [clotrimazole, 1-[(2-chlorophenyl)-diphenylmethyl]-1H-imidazole] | – | – | – | – | block of SK4 channels (SK4 channels): blocked
3 | CC(=O)N1CCN(c2ccc(OCC3COC(Cn4ccnc4)(c4ccc(Cl)cc4Cl)O3)cc2)CC1 (stereo not shown) [ketoconazole] | – | – | – | not blocked | –
4 | charybdotoxin | – | – | – | blocked | –
5 | iberiotoxin | – | – | – | not blocked | –
6 | Clc1ccccc1C(c1ccccc1)(c1ccccc1)n1cccn1 [TRAM-34, 1-[(2-chlorophenyl)diphenylmethyl]-1H-pyrazole] | 800 | decreased | decreased | – | –
